The values below come from US20250319059A1, “Method for Treating Inflammatory Dysfunction of the Oral Mucosa” (VIVASOR, INC., priority 2022, published 2025).

Data set [1] in a line: Preliminary safety study of oral topical application of RTX in cats with gingival inflammation. It counts as in vivo, cat. The source says: This example provides safety data related to oral topical application of RTX. The primary objective of this study was to determine the initial tolerance of RTX when it is topically administered under anesthesia to the oral cavity of cats as a single treatment.
Four cats were enrolled in this study. Each cat presented with mild to moderate gingival inflammation. The cats were allocated to two treatment groups according to severity of gingival inflammation. Group 1 cats, those with mild cases of gingivitis, were dosed on study Day 0 with a diluted RTX solution (12.5 μg/mL) applied topically to the maxillary and mandibular gingival tissue (buccal and palatal/lingual gingiva). Group 2 cats, those with current or recent historical moderate gingivitis, underwent the same treatment regimen on study Day 0 with the addition of application to the palatal and sublingual tissue.
Total dose of RTX tested per cat (diluted with sterile saline for a total volume of 2 mL) was: 17.5 μg (Group 1 cat), 23.75 μg (Group 1 cat), or 25 μg (Group 2 cats) RTX. One cat (pudding) received 17.5 μg RTX, one cat (Clank) received 23.75 μg RTX, and two cats (Forbes and Bianca) received 25 μg RTX. A single application of RTX was topically applied inside the mouth of each cat. The RTX was applied to the entire mouth.
Cats were anesthetized during treatment administration and for 30 minutes post-dose. Diphenhydramine (2 mg/kg, IM) was given as an anesthetic pre-treatment a minimum of 30 minutes prior to dosing. Induction was then performed using a combination of medetomidine 0.03 mg/kg, ketamine 5 mg/kg and butorphanol 0.2 mg/kg; dose volume 0.1 mL/kg, IM. Following application of a lidocaine hydrochloride spray to the larynx, intubation was performed and anesthesia was maintained using an isofluraneoxygen mixture. Standard anesthetic monitoring of vital signs was performed approximately every 5-10 minutes following dosing and precautions were taken to avoid low body temperature throughout the procedure. Cats remained under anesthesia for 30 minutes following dosing for additional monitoring. Upon removal from anesthetic, reversal drug atipamezole (0.2 mg/kg, IM) was administered.
To assess RTX tolerance, adverse event monitoring was performed using the following parameters: measurement of vital signs during anesthesia; physical examinations performed 0.25, 0.5, 1, 2, 3 and 4 hours following recovery from anesthesia (i.e. removal of endotracheal tube) as well as 1, 3 and 7 days post-dose in both the morning (AM) and afternoon (PM); twice daily clinical observations; daily food consumption measurement.

For data set [2], the system named is oral inflammation, Feline Chronic Gingivostomatitis (FCGS). The data set is described as follows: Stomatitis Disease Activity Index (SDAI) in client-owned cats after oral topical RTX. The settings on record: for treatment success (SDAI): success = 20% reduction in Day 28 SDAI vs Day 0 (post-hoc). It counts as in vivo, cat. The method, then:
(§1) Characterize the required dose of RTX applied topically to the oral mucosa for the control of pain associated with Feline Chronic Gingivostomatitis (FCGS).
Stomatitis Disease Activity Index (SDAI)—This semi-quantitative assessment of oral inflammation was carried out prior to the beginning of treatment (day 0) and at day 28 (at the conclusion of treatment). Cats were assessed by owner for cat's interest in food and ability to eat, perceived comfort, grooming behavior, and activity levels. Each assessment was graded from 0 to 3 (0=no problem; 3=severe problems).
The average of the scores in Table 1 (total score divided by 4) were entered in the “owner evaluation” box on the initial SDAI (Stomatitis Disease Activity Index) tabulation sheet of Table 2. The rest of the questions on SDAI survey were completed by the veterinarian prior to the beginning of treatment (day 0) and at day 28 (at the conclusion of treatment). Each assessment was graded from 0 to 3 (0=no problem; 3=severe problems) as follows:
Treatment success using the SDAI metric was defined post-hoc as a 20% reduction in the Day 28 SDAI compared to Day 0. Based on this definition, the percentage success was 100.0%, 80.0% and 44.4% for Cohorts 1, 2, and 3 respectively. The discrepancy in the success rate of Cohort 3 using the two metrics may be due to a higher baseline SDAI score.
(§2) Each animal was randomly assigned to one of three groups. Ten cats (group 1) were treated with 6.25 μg RTX (total) diluted with sterile saline for a total volume of 2 mL. Nine cats (group 2) were treated with 12.5 μg RTX (total) diluted with sterile saline for a total volume of 2 mL. Nine cats (group 3) were treated with 25 μg RTX (total) diluted with sterile saline for a total volume of 2 mL.
(§3) RTX solution was applied using a clean cotton tip applicator directly to the visible lesions and adjacent tissue. The non-target dosing areas (caudal mouth/pharynx) were protected using a 4×4 gauze. Any targeted area was dried with sterile gauze or using the air-water syringe system. The saturated applicator for was gently pressed along the targeted areas for 10 seconds. Two to three coats per lesion were applied using the same cotton tip applicator. The area was allowed to dry for a few seconds before moving to the next lesion by exposing the area to the air or by gently using the air-water syringe system. When possible, and in absence of active bleeding due to manipulation, the RTX solution was allowed to drip into the gingival sulcus. If a target area was actively bleeding, an attempt to decrease or stop the bleeding was made before the RTX application.

The target of the next data set is TRPV1 receptor (Homo sapiens, UniProt Q8NER1). The settings on record: cited from earlier work.
Sequence of TRPV1 receptor (Q8NER1 whole entry): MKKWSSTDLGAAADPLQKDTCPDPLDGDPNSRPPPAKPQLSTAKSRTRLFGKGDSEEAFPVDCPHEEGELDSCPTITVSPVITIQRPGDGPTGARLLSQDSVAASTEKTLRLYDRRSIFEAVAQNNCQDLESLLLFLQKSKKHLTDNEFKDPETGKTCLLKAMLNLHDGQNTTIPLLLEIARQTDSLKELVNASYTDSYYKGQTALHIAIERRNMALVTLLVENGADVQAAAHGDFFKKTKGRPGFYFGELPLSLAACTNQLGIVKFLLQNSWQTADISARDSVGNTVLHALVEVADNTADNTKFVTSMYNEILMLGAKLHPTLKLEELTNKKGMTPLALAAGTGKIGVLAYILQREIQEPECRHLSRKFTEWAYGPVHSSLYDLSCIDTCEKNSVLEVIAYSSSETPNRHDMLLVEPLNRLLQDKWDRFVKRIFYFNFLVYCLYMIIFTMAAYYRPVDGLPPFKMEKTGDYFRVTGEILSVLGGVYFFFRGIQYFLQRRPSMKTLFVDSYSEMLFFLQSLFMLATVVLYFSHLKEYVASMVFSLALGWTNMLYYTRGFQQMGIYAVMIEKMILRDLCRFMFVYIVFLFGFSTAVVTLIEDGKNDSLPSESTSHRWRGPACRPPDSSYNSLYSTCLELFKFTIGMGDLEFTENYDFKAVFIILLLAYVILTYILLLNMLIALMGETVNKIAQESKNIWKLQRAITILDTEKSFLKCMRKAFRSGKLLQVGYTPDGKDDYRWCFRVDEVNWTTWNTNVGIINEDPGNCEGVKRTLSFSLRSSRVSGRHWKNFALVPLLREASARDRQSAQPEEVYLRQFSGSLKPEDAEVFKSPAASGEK
The nature of data set [3]: Safety variables of the FCGS effectiveness study (mortality, adverse events, clinical observations, body weight, ability to eat). It counts as in vivo, cat. The source says: Mortality—No mortality, whether by natural death or euthanasia, occurred on this study.
An adverse event (AE) is defined as any undesirable event, expected or not, occurring to a study animal during the study, regardless of whether the event was considered to have a causal relation to a study treatment. Adverse events were reported at scheduled times during the study from Day 0 to the last day of the study. Certain adverse events, defined as serious adverse events, were reported in an expedited fashion to allow for possible study protocol modifications. A Serious Adverse Event (SAE) is defined as any medical occurrence that results in hospitalization longer than 24 hours or results in significant disability or morbidity or is life threatening or results in death.
Severity, causality and outcome of adverse events were recorded. Causality is a determination of whether there was a reasonable possibility that the drug may have caused or contributed to an AE. This relationship was described as “unlikely”, “possible”, “probable”, “definite”, or “unknown.”
On Day 0, starting once the RTX was applied to all oral lesions (time 0), clinical observations were carried out by the veterinarian at 10, 30, 45, 60 (±5 minutes), as well as at 2 hours (±10 minutes) and 4 hours (±15 minutes), post-treatment administration. Cats were observed past 4 hours post-treatment administration, as necessary or until resolution of abnormal observations.
Cats were weighed on days 0, 7, 14, and 28. Normal body weights were reported for 24 of the 28 cats. Two cats (one in Cohort 1 and one in Cohort 3) had abnormal (low) weight on day 0, but normal weight by day 28.
Cats' ability to eat was assessed on days 0, 7, 14, and 28. The majority of the cats' ability to eat improved throughout the study. On day 28, no differences in ability to eat were detected between cohorts.

Data set [4] deals with oral pain associated with Feline Chronic Gingivostomatitis (FCGS). The data set is described as follows: Veterinarian Specific Outcome Measures (VSOM) in client-owned cats after oral topical RTX. It counts as in vivo, cat. The conditions noted are these: for treatment success rate (VSOM): Day 28 vs Day 0, success = reduction of at least 2 in total VSOM score.
From the text: as §1
• Cat less than 12 months of age. • Cat's body weight less than 2 kg. • Cat unlikely to survive a 30-min anesthesia or sedation procedure. • Cat was unlikely to survive 4 weeks due to health issues other than oral pain. • Cat was unavailable for the entire study duration or was felt to be unsuitable by the Investigator for another reason. • Cat was participating in another study • Cat was pregnant or lactating. • Cat underwent an oral surgical procedure within 30 days prior to screening. • Cat received cannabinoid agonists such as cannabidiol (CBD) or anandamide within 28 days of starting the study. • Cat received oral corticosteroids within 1 week of starting the study, or injectable corticosteroids within 6 weeks of starting the study, and/or required medication or supplements during the study that may have interfered with the objective of the study.
Twenty-eight cats, each weighing over 2 kg and over 12 months of age, were enrolled in this study. There was no apparent trend in the ages of cats enrolled in the study. Enrolled cats were physically examined (their physical exam findings such as general appearance, ears/eyes/mouth, abdominal/gastrointestinal, musculoskeletal, neurological urogenital, lymphatic etc. . . . were recorded). Their weight and vital signs were recorded as well.
Veterinarian Specific Outcome Measures (VSOM)—Qualitative assessment of common stomatitis signalment was carried out prior to the beginning of treatment and on day 7, 14, and 28 (at the conclusion of treatment). Cats were assessed for drooling, pain while eating, pain at manipulation and swelling of the oral tissue. Each clinical sign was graded from 1 to 5 (1=no problem; 5=Impossible).
Treatment success was defined as “a reduction of at least 2 in total VSOM score at Day 28 compared to VSOM score at Day 0. A decrease of less than 2, no change, or an increase in total score was defined as treatment failure. Cats presenting an increase in any individual VSOM were considered a treatment failure regardless of total VSOM score. […] The results of each cohort were not compared statistically; only descriptive statistics were generated due to the small number of cats per cohort and lack of randomization. However, there was no evidence of a relationship between treatment success and dose.
as §2
as §3, with “When possible, and in absence of active bleeding due to manipulation, the RTX solution was allowed to drip into the gingival sulcus. If a target area was actively bleeding, an attempt to decrease or stop the bleeding was made before the RTX application.” left out

Bounds are passed on as bounds.

Take `C=C(C)[C@]12C[C@@H](C)[C@@]34O[C@](Cc5ccccc5)(O[C@@H]1[C@@H]3C=C(COC(=O)Cc1ccc(O)c(OC)c1)C[C@]1(O)C(=O)C(C)=C[C@@H]41)O2` [RTX, resiniferatoxin]: the “time to resolution of mild increases in severity of gingivitis” value in data set [1] (2 cats, without intervention) is given as at most 3 days post-dose. In data set [1] (8 days following RTX administration), the food consumption entry is on record as “returned to normal by day seven”. Further, the body weight entry in data set [1] (day 8 vs before administration) is “by day 8 the weight was back to normal”. The tolerability entry in data set [1] (single topical oral application 17.5-25 μg RTX (12.5 μg/mL), 4 cats, followed 8 days) was “well tolerated with only mild and transient adverse events”. The “treatment success (SDAI)” value in data set [2] (Cohort 1, 6.25 μg RTX) is reported as 100.0%; in data set [2] (Cohort 2, 12.5 μg RTX), 80.0%; in data set [2] (Cohort 3, 25 μg RTX), 44.4%. Moreover, the “percent improvement in SDAI” value in data set [2] (day 0 to day 28) is listed as “about 60%”. In addition, the “potency relative to capsaicin” value on TRPV1 receptor (TRPV1 receptor agonist) was 1000-10,000 times. Besides, the Scoville scale on TRPV1 receptor is recorded as 16 billion. In data set [3] (6.25-25 μg RTX topical oral), the “severity of adverse events” value was “Most of the AE were graded as mild”. In addition, the “serious adverse events (SAE) during in-life” value in data set [3] (28 cats, 6.25-25 μg RTX topical oral) is given as “One”. In addition, the mortality entry in data set [3] (28 cats, 6.25-25 μg RTX topical oral, 28 days) is given as “No mortality”. Further, the “signs of systemic RTX exposure” value in data set [3] (application on inflamed oral mucosa) is “did not exhibit signs of systemic RTX exposure”. In addition, the ability to eat entry in data set [3] (assessed days 0, 7, 14, 28, all cohorts) is listed as “most of the cats in all cohorts that completed the study had an improvement in the ability to eat”. Besides, the “cats with normal body weights” value in data set [3] (weighed days 0, 7, 14, 28) is on record as 24 of the 28. Moreover, the “time to resolution of clinical signs (panting, hypersalivation, tachycardia, restlessness) post-treatment” value in data set [3] (without medical intervention) is at most 3 h. Further, the “control of pain and inflammation” value in data set [4] (6.25 μg RTX, 28 days) is “effective in controlling pain and inflammation for 28 days”. In addition, the “treatment success rate (VSOM)” value in data set [4] (Cohort 1, 6.25 μg RTX topical oral) turned out to be 90.0%; in data set [4] (Cohort 2, 12.5 μg RTX topical oral) it was 80.0%; in data set [4] (Cohort 3, 25 μg RTX topical oral), 88.9%. Moreover, the “treatment success (VSOM) on Day 14” value in data set [4] (Cohort 2, 12.5 μg RTX, Day 14) is reported as “all cats in Cohort 2 were a success”.
